Consider three molecules from patent US12495798B2, “Nicotinamide compound and herbicidal composition comprising compound” (KOREA RESEARCH INSTITUTE OF CHEMICAL TECHNOLOGY, priority 2019, dated 2025).

As usually defined, the plant injury is the degree to which the test organism was suppressed or injured, in per cent.

What all share (type): in vivo
One data set concerns bindweed. As to the kind of experiment: Herbicidal activity test against upland field weeds (foliar treatment test). To be noted: 50 g ai/ha, scale 0-100. In short, it runs like this: (§1)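 Greenhouse-grown plants (30±5 °C, 14/10 h light/dark) foliar hand-sprayed with compound in 50% acetone, 0.1% Tween-20 at 50 or 75 g a.i./ha. Control visually scored 0 (none) to 100 (complete) versus untreated after 14 days, or 21 days if needed.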

Another data set has as its system cocklebur. Described as above. The settings on record: 50 g ai/ha, scale 0-100; for pest or weed control at 50 g/ha: Xanthium strumarium. Put shortly:
as §1

A further data set concerns black nightshade. Described as above. More on the design: key to Foliar treatment herbicidal activity, black nightshade: 0 (no control); 100 (complete control). The settings on record: 50 g ai/ha, scale 0-100. In short, it runs like this:
as §1

The test system of the next data set is velvetleaf. Described as above. More on the design: key to Foliar treatment herbicidal activity, velvet leaf: 0 (no control); 100 (complete control). The settings on record: 50 g ai/ha; for pest or weed control at 50 g/ha: Abutilon theophrasti, scale 0-100, read-out: Foliar treatment herbicidal activity, velvet leaf. Put shortly: as §1
The test system of the next data set is indian jointvetch. The description is as above. Set-up: key to Foliar treatment herbicidal activity, Indian jointvetch: 0 (no control); 100 (complete control). To be noted: 50 g ai/ha, scale 0-100. In short, it runs like this:
as §1

In another data set the test system is crabgrass. The data set is described as above. The settings on record: 50 g ai/ha, scale 0-100; for pest or weed control at 50 g/ha: Digitaria sanguinalis. Put shortly:
as §1

A further data set relates to wheat. The data set can be described thus: Phytotoxicity test for upland field crops (foliar treatment test). More on the design: key: 0 (no harm); 9 (complete withered). In short, it runs like this: (§2)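 Crops grown in greenhouse pots (30±5 °C, 14/10 h light) were foliar-sprayed with compound at 19–300 g a.i./ha in 33% acetone/0.1% Tween-20. Phytotoxicity scored 0 (no harm) to 9 (complete withering) versus untreated control at 7 and 14 days, 21 if needed.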

The test system of the next data set is corn. The data set is described as above. Set-up: key: 0 (no harm); 9 (complete withered). In short, it runs like this:
as §2

The next data set has as its system fall panicum. The data set can be described thus: Herbicidal activity test against upland field weeds (foliar treatment test). The settings on record: 50 g ai/ha, scale 0-100; for pest or weed control at 50 g/ha: Panicum dichotomiflorum. In short, it runs like this: as §1
The subject of another data set is sorghum. The data set is described as above. To be noted: 50 g ai/ha, scale 0-100; for plant injury at 50 g/ha: Sorghum. Put shortly:
as §1

For a further data set, the system named is quack grass. The data set is described as above. More on the design: key to Foliar treatment herbicidal activity, quack grass: 0 (no control); 100 (complete control). To be noted: 50 g ai/ha, scale 0-100. In short, it runs like this: as §1
Another data set relates to barnyard grass. Described as above. The settings on record: 50 g ai/ha, scale 0-100; for pest or weed control at 50 g/ha: Echinochloa crus-galli. In short, it runs like this:
as §1

[1] abbreviates: 50 g ai/ha, Wheat (7 days after treatment).
The mark [2] stands for this setting: 50 g ai/ha, Wheat (14 days after treatment).
[3] abbreviates: 100 g ai/ha, Wheat (7 days after treatment).
The mark [4] stands for this setting: 100 g ai/ha, Wheat (14 days after treatment).
Setting [5] is: 50 g ai/ha, Corn (7 days after treatment).
Setting [6] is: 50 g ai/ha, Corn (14 days after treatment).
Setting [7] is: 100 g ai/ha, Corn (7 days after treatment).
[8] abbreviates: 100 g ai/ha, Corn (14 days after treatment).

Turning to `C=C(C)c1nc(COCc2nc(C(F)(F)F)ccc2C(=O)Nc2nnnn2C)nn1C` [Compound No. 2-128, N-(1-methyl-1H-tetrazol-5-yl)-2-(((1-methyl-5-(prop-1-en-2-yl)-1H-1,2,4-triazol-3-yl)methoxy)methyl)-6-(trifluoromethyl)nicotinamide], the pest or weed control at 50 g/ha in the data set with bindweed worked out at 40%; in the data set on cocklebur it was 50%; in the data set on black nightshade (Solanum nigrum), 90%; with velvetleaf it was 70%; with crabgrass, 60%; in the data set with fall panicum, 70%. Besides, the pest or weed control at 50 g/ha in the data set with barnyard grass came to 60%. Besides, the “Foliar treatment herbicidal activity, Indian jointvetch” value in the data set on indian jointvetch is given as 0. Besides, the “Foliar treatment phytotoxicity, Wheat” value with wheat (setting [1]), in the data set with wheat (setting [2]), with wheat (setting [3]) and in the data set on wheat (setting [4]) was 0 throughout. The “Foliar treatment phytotoxicity, Corn” value in the data set on corn (setting [5]) came out at 1; in the data set with corn (setting [6]), 0; with corn (setting [7]) it was 2; in the data set with corn (setting [8]) it was 0. In the data set with sorghum, this molecule gave a plant injury at 50 g/ha of 20%. The “Foliar treatment herbicidal activity, quack grass” value in the data set with quack grass is on record as 0.

In the case of `Cn1nnnc1NC(=O)c1ccc(C(F)(F)F)nc1COCc1nc(S(C)(=O)=O)n(C)n1` [Compound No. 2-132, N-(1-methyl-1H-tetrazol-5-yl)-2-(((1-methyl-5-(methylsulfonyl)-1H-1,2,4-triazol-3-yl)methoxy)methyl)-6-(trifluoromethyl)nicotinamide], the pest or weed control at 50 g/ha in the data set on bindweed amounted to 70%; in the data set with cocklebur it was 98%; in the data set with velvetleaf, 98%; in the data set with indian jointvetch, 20%; in the data set with crabgrass it was 98%; in the data set on fall panicum, 50%. The molecule also registered a pest or weed control at 50 g/ha with barnyard grass of 98%. Also, the “Foliar treatment herbicidal activity, black nightshade” value with black nightshade was 100. For the same molecule, the “Foliar treatment phytotoxicity, Wheat” value turned out to be 3 in the data set with wheat (setting [1]), 2 in the data set on wheat (setting [2]), 3 with wheat (setting [3]) and 2 in the data set with wheat (setting [4]). The “Foliar treatment phytotoxicity, Corn” value with corn (setting [5]), in the data set on corn (setting [6]), in the data set on corn (setting [7]) and in the data set on corn (setting [8]) was 0 each time. Besides, in the data set on sorghum, the plant injury at 50 g/ha came to 30%. Besides, the “Foliar treatment herbicidal activity, quack grass” value in the data set with quack grass was determined as 0.

For the molecule `Cn1nc(COCc2nc(C(F)(F)F)ccc2C(=O)Nc2nnnn2C)nc1I` [Compound No. 2-137], the “Foliar treatment herbicidal activity, Bindweed” value in the data set on bindweed was found to be 70. The “Foliar treatment herbicidal activity, Cocklebur” value with cocklebur was determined as 98. For the same molecule, in the data set with black nightshade, the “Foliar treatment herbicidal activity, black nightshade” value was 100. In the data set with velvetleaf (scale 0-100), the “Foliar treatment herbicidal activity, velvet leaf” value is given as 100. The “Foliar treatment herbicidal activity, Indian jointvetch” value in the data set with indian jointvetch turned out to be 100. Further, in the data set on crabgrass, the “Foliar treatment herbicidal activity, Crabgrass” value is reported as 95. The “Foliar treatment phytotoxicity, Wheat” value with wheat (setting [1]), in the data set on wheat (setting [2]), in the data set on wheat (setting [3]) and with wheat (setting [4]) was 0 throughout. For the same molecule, the “Foliar treatment phytotoxicity, Corn” value in the data set on corn (setting [5]), in the data set on corn (setting [6]), in the data set on corn (setting [7]) and in the data set with corn (setting [8]) was 0 in each case. In addition, the “Foliar treatment herbicidal activity, Fall panicum” value in the data set with fall panicum is recorded as 50. Besides, the “Foliar treatment herbicidal activity, Sorghum” value in the data set with sorghum came out at 60. In the data set on quack grass, the “Foliar treatment herbicidal activity, quack grass” value turned out to be 0. The “Foliar treatment herbicidal activity, barnyard grass” value with barnyard grass came to 95.
